Results reported in publication PMC7265341, “Quantifying CDK inhibitor selectivity in live cells” (Nature Communications, 2020).
Where “and” joins values, the source holds several entries; their conditions need not be identical. Identical values can stand only once. Like-named read-outs stand apart in the source and are kept apart here.

Columns and labels:
[1] = biological target: T1, CDK7 (Homo sapiens, UniProt P50613); test: NanoBRET live-cell target engagement, NanoLuc-CDK7 in HEK-293; assay type: binding; settings: 10µM
T1 sequence (P50613 whole entry): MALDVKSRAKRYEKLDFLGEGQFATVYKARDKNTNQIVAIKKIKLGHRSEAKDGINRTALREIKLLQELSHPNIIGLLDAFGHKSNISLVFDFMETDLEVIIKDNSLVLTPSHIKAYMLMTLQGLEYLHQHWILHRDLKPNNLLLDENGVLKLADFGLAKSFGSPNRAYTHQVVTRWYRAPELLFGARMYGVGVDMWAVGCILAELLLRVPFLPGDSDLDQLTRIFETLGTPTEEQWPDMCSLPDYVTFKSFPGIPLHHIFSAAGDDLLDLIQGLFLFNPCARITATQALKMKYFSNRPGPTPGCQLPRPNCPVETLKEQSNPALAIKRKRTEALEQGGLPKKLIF

[2] = biological target: CDK14/Cyclin Y (Homo sapiens, UniProt O94921); test: NanoBRET live-cell target engagement, CDK14-NanoLuc/Cyclin Y in HEK-293; assay type: binding; settings: 10µM
Chain of CDK14/Cyclin Y (O94921 whole entry): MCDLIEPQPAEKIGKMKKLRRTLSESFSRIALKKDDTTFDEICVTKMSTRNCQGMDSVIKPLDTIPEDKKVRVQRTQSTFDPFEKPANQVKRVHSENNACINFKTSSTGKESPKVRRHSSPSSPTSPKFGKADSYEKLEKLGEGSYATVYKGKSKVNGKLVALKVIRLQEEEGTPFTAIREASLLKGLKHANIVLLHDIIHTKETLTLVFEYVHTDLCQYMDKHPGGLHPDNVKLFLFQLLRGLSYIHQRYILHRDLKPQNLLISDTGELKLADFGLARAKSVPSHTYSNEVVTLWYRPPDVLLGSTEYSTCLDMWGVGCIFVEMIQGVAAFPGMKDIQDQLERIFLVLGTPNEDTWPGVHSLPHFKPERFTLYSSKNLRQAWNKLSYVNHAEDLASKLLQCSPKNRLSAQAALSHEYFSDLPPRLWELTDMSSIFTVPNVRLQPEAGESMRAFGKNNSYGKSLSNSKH
Chain of CDK14/Cyclin Y (Q8ND76 whole entry partner): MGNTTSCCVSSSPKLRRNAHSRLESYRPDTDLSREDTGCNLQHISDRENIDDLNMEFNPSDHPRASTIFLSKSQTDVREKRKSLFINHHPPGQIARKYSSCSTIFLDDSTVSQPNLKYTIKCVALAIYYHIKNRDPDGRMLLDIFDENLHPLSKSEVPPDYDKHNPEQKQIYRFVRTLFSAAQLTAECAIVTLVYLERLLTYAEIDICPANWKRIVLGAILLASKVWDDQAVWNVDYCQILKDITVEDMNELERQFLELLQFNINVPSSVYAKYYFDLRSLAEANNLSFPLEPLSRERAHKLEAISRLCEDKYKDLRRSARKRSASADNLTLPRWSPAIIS

[3] = tested on: all 21 human CDKs; test: Live-cell selectivity profile across all 21 CDK/cyclin complexes in HEK-293; assay type: binding; settings: remaining CDK family, live HEK-293; read-out: Collateral CDK (potency)
[4] = biological target: CDK4/Cyclin D1 (Homo sapiens, UniProt P11802); test: Target engagement analysis in MCF7 cells, NLuc-CDK4/Cyclin D1; assay type: binding; settings: Panel D;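 note: MCF7 cells transiently transfected to express NLuc-tagged CDK4 together with Cyclin D1, with the assay run in Opti-MEM medium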
Chain of CDK4/Cyclin D1 (P11802 whole entry, the tested form may be a part): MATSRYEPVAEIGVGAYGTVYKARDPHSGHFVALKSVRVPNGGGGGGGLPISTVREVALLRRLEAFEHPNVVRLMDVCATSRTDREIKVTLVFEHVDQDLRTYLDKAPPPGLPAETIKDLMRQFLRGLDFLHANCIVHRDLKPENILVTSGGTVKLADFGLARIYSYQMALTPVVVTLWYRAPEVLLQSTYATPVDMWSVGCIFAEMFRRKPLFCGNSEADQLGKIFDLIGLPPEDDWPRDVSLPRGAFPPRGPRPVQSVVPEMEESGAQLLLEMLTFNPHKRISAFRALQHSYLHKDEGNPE
Chain of CDK4/Cyclin D1 (P24385 whole entry partner, the tested form may be a part): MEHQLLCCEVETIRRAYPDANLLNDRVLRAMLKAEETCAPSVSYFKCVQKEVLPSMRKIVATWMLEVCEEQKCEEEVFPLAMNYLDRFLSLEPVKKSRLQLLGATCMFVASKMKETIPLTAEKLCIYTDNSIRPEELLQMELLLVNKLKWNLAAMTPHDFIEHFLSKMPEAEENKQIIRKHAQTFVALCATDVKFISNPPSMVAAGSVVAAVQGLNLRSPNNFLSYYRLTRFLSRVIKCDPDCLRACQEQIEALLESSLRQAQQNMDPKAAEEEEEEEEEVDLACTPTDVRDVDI

[5] = biological target: CDK6/Cyclin D1 (Homo sapiens, UniProt Q00534); test: Target engagement analysis in MCF7 cells, NLuc-CDK6/Cyclin D1; assay type: binding; settings: Panel C;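 note: MCF7 cells transiently co-transfected with an NLuc-CDK6 fusion plasmid plus a Cyclin D1 expression plasmid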
Chain of CDK6/Cyclin D1 (Q00534 whole entry, the tested form may be a part): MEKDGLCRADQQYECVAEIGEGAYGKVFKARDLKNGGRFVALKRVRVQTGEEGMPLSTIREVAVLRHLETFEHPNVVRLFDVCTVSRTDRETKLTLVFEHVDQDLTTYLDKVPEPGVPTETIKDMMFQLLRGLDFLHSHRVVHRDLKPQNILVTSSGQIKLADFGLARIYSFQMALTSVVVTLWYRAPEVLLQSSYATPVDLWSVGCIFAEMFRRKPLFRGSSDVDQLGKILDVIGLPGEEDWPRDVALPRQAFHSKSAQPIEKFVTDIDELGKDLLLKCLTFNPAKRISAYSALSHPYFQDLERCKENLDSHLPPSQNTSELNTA
Chain of CDK6/Cyclin D1 (P24385 whole entry partner, the tested form may be a part): as the sequence (P24385 whole entry partner, the tested form may be a part) above

[6] = tested on: phospho-Rb (Ser 807/811); test: Endogenous phospho-Rb (Ser 807/811) Lumit immunoassay in MCF7 cells; assay type: cell-based, human; settings: for Normalized pRB (%): Panel E;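 for all read-outs here: Serum-starved cells exposed to compounds for 24 h with 25 ng/mL hEGF, then lysed, phospho-Rb detected by split-luciferase antibody pair luminescence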
[7] = biological target: T1, CDK7; test: Real-time analysis of engagement (kobs, IC50 vs time) in live cells, CDK7; assay type: binding
Experimental: Cells were pre-equilibrated with energy transfer probe for 40 min prior to addition of […]
intervals at 25 °C (temperature reduced to avoid evaporation of cell culture medium). To quantify […]
vs time. Apparent association rate was also plotted as k obs vs [RGB286638], where kobs was determined using the one phase association equation (Supplementary Equation 2) in graphpad prism.
Y=Y0 + (Plateau-Y0)*(1-e-K*X) (2) where Y = mBRET ratio, X = time, and K = the observed rate constant ( kobs). […]
CDK7 (left) and CDK6 (right) to generate kobs. Kinetic traces were collected in a single biological experiment (n = 1), where individual data points represent the mean ± S.D of technical triplicates (n = 3).
(B) kobs values (n = 1) were generated from panel A by fitting Supplementary Equation 2, and were then […]
collected at each timepoint represent technical singlicates (n = 1 ). Source data are provided as a Source

[8] = LOG10([Compound]) (LOG10(µM)) 0.0457575
[9] = LOG10([Compound]) (LOG10(µM)) 0.522879
[10] = LOG10([Compound]) (LOG10(µM)) 1
[11] = LOG10([Compound]) (LOG10(µM)) -0.431364
[12] = LOG10([Compound]) (LOG10(µM)) -0.908485
[13] = LOG10([Compound]) (LOG10(µM)) -1.38561
[14] = LOG10([Compound]) (LOG10(µM)) -1.86273
[15] = LOG10([Compound]) (LOG10(µM)) -2.33985
[16] = LOG10([Compound]) (LOG10(µM)) -2.81697
[17] = LOG10([Compound]) (LOG10(µM)) -3.29409
[18] = LOG10([THZ1]) (LOG10(µM)) 0.346787
[19] = LOG10([THZ1]) (LOG10(µM)) 0.823909
[20] = LOG10([THZ1]) (LOG10(µM)) 1.30103, Replicates 1 and 2
[21] = LOG10([THZ1]) (LOG10(µM)) -0.60746
[22] = LOG10([THZ1]) (LOG10(µM)) -1.08458
[23] = LOG10([THZ1]) (LOG10(µM)) -1.5617
[24] = LOG10([THZ1]) (LOG10(µM)) -2.03882
[25] = LOG10([THZ1]) (LOG10(µM)) -2.51594
[26] = LOG10([THZ1]) (LOG10(µM)) -2.99306
[27] = LOG10([THZ1]) (LOG10(µM)) -3.47018
[28] = LOG10([THZ1]) (LOG10(µM)) -3.9473

SMILES: COc1cc(F)ccc1-c1cc(Nc2cc(CS(C)(=N)=O)ccn2)ncc1F (stereo not shown) [BAY-1251152]
- inhibition at 10 µM ([1]; CDK7, average of replicates, read-out: Inhibition at 10µM (%) Average): 58.7%
- inhibition at 10 µM ([1]; CDK7, read-out: Inhibition at 10µM (%) Replicate 1): 59.8%
- inhibition at 10 µM ([1]; CDK7, read-out: Inhibition at 10µM (%) Replicate 2): 57.6%
- inhibition at 10 µM ([2]; CDK14/Y, average of replicates, read-out: Inhibition at 10µM (%) Average): 19.5%
- inhibition at 10 µM ([2]; CDK14/Y, read-out: Inhibition at 10µM (%) Replicate 1): 16.7%
- inhibition at 10 µM ([2]; CDK14/Y, read-out: Inhibition at 10µM (%) Replicate 2): 22.4%
- IC50 [3]: > 1000 nM

SMILES: CN1CCN(c2ccc(Nc3ncc4cc5n(c4n3)C3(CCCCC3)CNC5=O)nc2)CC1 [Trilaciclib]
- inhibition at 10 µM ([1]; average of experiments, read-out: CDK7 Inhibition at 10µM (%)): 8.6%
- inhibition at 10 µM ([1]; independent experiment 1, read-out: CDK7 Inhibition at 10µM (%)): -3.8%
- inhibition at 10 µM ([1]; independent experiment 2, read-out: CDK7 Inhibition at 10µM (%)): 20.9%
- inhibition at 10 µM ([2]; average of experiments, read-out: CDK14/Y Inhibition at 10µM (%)): 11.3%
- inhibition at 10 µM ([2]; independent experiment 1, read-out: CDK14/Y Inhibition at 10µM (%)): 16.4%
- inhibition at 10 µM ([2]; independent experiment 2, read-out: CDK14/Y Inhibition at 10µM (%)): 6.2%
- CDK4 Target Occupancy [4, 8]: 104 and 103.238 and 105.143
- CDK4 Target Occupancy [4, 9]: 109.905 and 105.81 and 108 and 106.476
- CDK4 Target Occupancy [4, 10]: 104.19 and 102.19 and 103.238 and 105.143
- CDK4 Target Occupancy [4, 11]: 107.333 and 104.381 and 108.571 and 104.286
- CDK4 Target Occupancy [4, 12]: 102.286 and 102.857 and 103.333 and 103.048
- CDK4 Target Occupancy [4, 13]: 103.238 and 101.524 and 101.714 and 103.81
- CDK4 Target Occupancy [4, 14]: 99.1429 and 96.1905 and 95.9048
- CDK4 Target Occupancy [4, 15]: 89.0476 and 92.4762 and 89.4286
- CDK4 Target Occupancy [4, 16]: 77.4286 and 74.7619 and 73.7143 and 67.1429
- CDK4 Target Occupancy [4, 17]: 58.1905 and 60.6667 and 56.5714 and 57.0476
- CDK4 Target Occupancy ([4]; LOG10([Compound]) (LOG10(µM)) -3.77121): 32.381 and 31.4286 and 33.3333
- CDK6 Target Occupancy [5, 8]: 101.609 and 102.011 and 101.117 and 100.76
- CDK6 Target Occupancy [5, 9]: 102.28 and 102.861 and 100.67 and 102.905
- CDK6 Target Occupancy [5, 10]: 101.52 and 101.564 and 101.073 and 101.654
- CDK6 Target Occupancy [5, 11]: 101.654 and 100.223 and 101.833 and 101.341
- CDK6 Target Occupancy [5, 12]: 100.715 and 100.045 and 100 and 101.028
- CDK6 Target Occupancy [5, 13]: 97.5863 and 94.6363 and 95.9772 and 97.2287
- CDK6 Target Occupancy [5, 14]: 90.9264 and 90.3453 and 90.1218 and 88.5574
- CDK6 Target Occupancy [5, 15]: 74.567 and 73.0473 and 71.5722 and 77.4723
- CDK6 Target Occupancy [5, 16]: 30.7185 and 35.6353 and 35.9482 and 37.7808
- IC50 ([6]; Homo sapiens, MCF7 cells, Panel F pIC50 correlations): 20.9 nM
- Normalized pRB (%) [6, 8]: 9.9% and 10.9% and 11.1%
- Normalized pRB (%) [6, 9]: 8.7% and 9.3% and 9.4%
- Normalized pRB (%) [6, 10]: 9.1% and 9.9% and 10.7%
- Normalized pRB (%) [6, 11]: 11.9% and 12.2% and 12.8%
- Normalized pRB (%) [6, 12]: 21.1% and 21.7% and 21.4%
- Normalized pRB (%) [6, 13]: 39.5% and 43.3% and 40.8%
- Normalized pRB (%) [6, 14]: 65.2% and 69.5% and 71.9%
- Normalized pRB (%) [6, 15]: 95% and 98.6% and 94.8%
- Normalized pRB (%) [6, 16]: 103% and 105.2% and 103.9%
- Normalized pRB (%) [6, 17]: 100.3% and 111% and 109%

SMILES: CN(C)C/C=C/C(=O)Nc1ccc(C(=O)Nc2cccc(Nc3ncc(Cl)c(-c4c[nH]c5ccccc45)n3)c2)cc1 [THZ1]
- CDK7 Inhibition at 10µM (%) ([1]; average of experiments): 83.9%
- CDK7 Inhibition at 10µM (%) ([1]; independent experiment 1): 70.6%
- CDK7 Inhibition at 10µM (%) ([1]; independent experiment 2): 97.1%
- CDK14/Y Inhibition at 10µM (%) ([2]; average of experiments): 33.1%
- CDK14/Y Inhibition at 10µM (%) ([2]; independent experiment 1): 6.6%
- CDK14/Y Inhibition at 10µM (%) ([2]; independent experiment 2): 59.6%
- mBRET values, 2h [7, 18]: 8.56 mBRET and 5.32 mBRET
- mBRET values, 2h [7, 19]: 7.68 mBRET and 4.86 mBRET
- mBRET values, 2h [7, 20]: 6.67 mBRET and 4.16 mBRET
- mBRET values, 2h [7, 21]: 15 mBRET and 7.79 mBRET
- mBRET values, 2h [7, 22]: 16.83 mBRET and 10.6 mBRET
- mBRET values, 2h [7, 23]: 18.12 mBRET and 11.5 mBRET
- mBRET values, 2h [7, 24]: 20.68 mBRET and 12.8 mBRET
- mBRET values, 2h [7, 25]: 20.88 mBRET and 13.4 mBRET
- mBRET values, 2h [7, 26]: 20.48 mBRET and 13.4 mBRET
- mBRET values, 2h [7, 27]: 19.82 mBRET and 13.5 mBRET
- mBRET values, 2h [7, 28]: 20.06 mBRET and 13.5 mBRET
- mBRET values, 6h [7, 18]: 7.65 mBRET and 4.87 mBRET
- mBRET values, 6h [7, 19]: 7.21 mBRET and 4.56 mBRET
- mBRET values, 6h [7, 20]: 6.77 mBRET and 4.18 mBRET
- mBRET values, 6h ([7]; LOG10([THZ1]) (LOG10(µM)) -0.13033): 8.08 mBRET and 4.82 mBRET
- mBRET values, 6h [7, 21]: 8.54 mBRET and 5.25 mBRET
- mBRET values, 6h [7, 22]: 9.55 mBRET and 5.83 mBRET
- mBRET values, 6h [7, 23]: 13.84 mBRET and 8.78 mBRET
- mBRET values, 6h [7, 24]: 18.55 mBRET and 12 mBRET
- mBRET values, 6h [7, 25]: 19.6 mBRET and 13.1 mBRET
- mBRET values, 6h [7, 26]: 19.14 mBRET and 12.9 mBRET
- mBRET values, 6h [7, 27]: 18.6 mBRET and 13.6 mBRET
- mBRET values, 6h [7, 28]: 19.78 mBRET and 13.4 mBRET
